Test results from a melting point compilation (Tetko et al.; mined from patent text by program, amines drawn as free bases though some values may be those of a salt).

SMILES | melting point [°C]
Clc1nc2cccc3c2n1CCC3 | 78
COC(=O)CCc1cnoc1-c1cc(Cl)c(Cl)s1 | 49 to 50
Cc1ccc(NC(=S)NC(NC(=O)c2ccc(C)cc2)C(F)(F)F)cc1 (centres undefined) | 192 to 193
O=C1c2ccc(Cl)cc2CC1Cl (centres undefined) | 63 to 66
COc1ccc(C2CCN(c3c(C)c(C)c4c(c3C)C(O)(c3ccc(C)cc3)C(C)(C)O4)CC2)cc1OC (centres undefined) | 133 to 135
N#CCOc1ccc(Cl)cc1-n1nncc1-c1cccc(C(F)(F)F)c1 | 145 to 146
COc1cc2ncnc(Nc3ccc4[nH]ccc4c3)c2cc1I | 260 to 267
CC(=O)N1CCC(C(=O)N2CC[C@@H](N(C)C(=O)c3ccc(C(F)(F)F)cc3)[C@H](c3ccc(Cl)c(Cl)c3)C2)CC1 | 122
O=c1[nH]ncc(NCCN2CCN(c3cccc4c3OCCO4)CC2)c1Cl | 217 to 219
CC(C)(C)c1ccccc1N1CCN(C(=O)c2ccccc2)CC1 | 104 to 106
CC(C)(C)ON=C(C(=O)O)c1cccs1 | 106 to 107
COC(=O)CCSCCCCCCCCCCCCI | 33
N#Cc1ccc2c(c1)C=CCCO2 | 69 to 71
CN(C)C(=O)Nc1nsnc1-c1c(Cl)cccc1Cl | 100 to 103
COCc1cnc2c(NC(=O)c3c(Cl)cccc3Cl)ccc(C)c2c1Cl | 180
COc1cc(OC)cc(C(=O)N2CCc3cc(O)ccc3C2=O)c1 | 178 to 179
COc1ccc(C=CC(=O)NNC(=O)C=Cc2ccc(OC)cc2)cc1 | 288
CC(=O)Oc1cc(C(C)=O)cc(C#N)c1OC(C)=O | 76 to 79
CC(C)=NOCc1nc2c(N)nc(C)c(C)c2n1CCCCNC(=O)C(C)C | 180 to 181
Nc1cc2[nH]c(=O)ccc2cn1 | > 275
O=C(Nc1ccc(Oc2ccc(N3CCC(O)CC3)cc2)cc1)c1ccc(Cl)c(Cl)c1 | 178 to 180
CN(CC(=O)O)C(=O)C(=O)c1cn(Cc2ccccc2)c2ccc(-c3cccc(OC(F)(F)F)c3)cc12 | 178 to 179
CC1(CC(=O)O)SCCC2=C1Cc1ccccc12 (centres undefined) | 119 to 121
COc1cc(C)nc(NC(=S)NNC(=O)c2ccccc2)n1 | 193 to 195
Cc1cccc2c1nc(COc1ccc(Cl)cc1)n2CCC(C)C(=O)O (centres undefined) | 149 to 151
COc1cc(C=C2C(=O)NC(=O)N2C)ccc1O | 197 to 198

SMILES | melting point [°C]
CC=C1CCC2C3C(O)CC4CC(O)CCC4(C)C3CCC12C (centres undefined) | 160 to 161
CCOc1nc(NC)nc(NC(=O)NS(=O)(=O)c2cccc3c2nnn3C)n1 | 203 to 209
CCOC(=O)c1cnc2ccc(CC3CCOCC3)cc2c1O | 275 to 280
CCC(C)CCCC(C)C1CC(=O)C2(C(=O)O)C3=C(CCC12C)C1(C)CCC(O)CC1CC3 (centres undefined) | 195 to 196
Cc1nccn1-c1cccc(O)c1 | 178 to 181
CCC(C)Nc1c([N+](=O)[O-])cc(C)c(Cl)c1[N+](=O)[O-] (centres undefined) | 40 to 46
NC(=O)c1c(N)oc2ccccc2c1=O | 264 to 266
CCOC(=O)COc1ccc2cc(Br)ccc2c1Br | 104 to 106
NNc1cc(OCC2CCCSC2)c(Cl)cc1F (centres undefined) | 83 to 87
CC(=O)NCCn1nnnc1Sc1ccc([N+](=O)[O-])cc1[N+](=O)[O-] | 197 to 198
CCOC(=O)C1CCc2ccc3[nH]c(C(F)(F)F)nc3c2O1 (centres undefined) | 134
NS(=O)(=O)c1ccsc1C(=O)OC1COC1 | 158 to 160
COc1ccc(C(=O)NCCCSc2nnnn2C)cc1 | 118 to 122
CN(C)C(=O)Oc1cccc(-c2cc(=O)c3cc(N(C)C)ccc3o2)c1 | 167 to 168
CC(=O)c1ccc2c(c1)C(C(Cl)(Cl)Cl)OC(C(Cl)(Cl)Cl)O2 (centres undefined) | 104 to 105
COc1cccc2c(=O)c(C=O)coc12 | 174 to 176
CNC(=O)c1ccc(N2CCN(Cc3cc(C)c4c(c3)NC(=O)C(C)O4)CC2)c(Cl)c1 (centres undefined) | 232
CN1C(=O)C(NC(=O)Nc2ccccc2)N(C)C1=O (centres undefined) | 188 to 189
O=C(Nc1ccc(-n2nc(C(F)(F)F)cc2C(F)(F)F)cc1)c1ccc(Br)cc1Cl | 164 to 167
Cc1c(C(=O)O)nn(-c2ccc(Cl)cc2Cl)c1-c1ccc(Cl)cc1 | 211
COC(Cn1cncn1)(c1ccc(F)cc1F)C(F)(F)SCCO (centres undefined) | 76 to 79
CC(=O)N[C@H]1CC[C@H](CCN2CCN(c3ncc(C)c4occc34)CC2)CC1 | 208
CN(C)S(=O)(=O)CCCOc1ccc2ncnn2n1 | 151 to 153
Cc1nn(-c2ccc(Cl)cc2Cl)c(=O)n(C)c1=O | 109 to 110
Nc1nc(OCC(F)(F)F)cc(C(F)(F)F)n1 | 108 to 110

Results, then the compound that gave them:

melting point [°C] | SMILES
52 to 54 | CC(C(=O)NCc1ccc(C(C)(C)C)cc1)c1ccc(NS(C)(=O)=O)c(F)c1 (centres undefined)
196 to 197 | CN(C)C(=O)C(Cc1ccccc1)NC(=O)Nc1n[nH]c(=S)s1 (centres undefined)
233 to 235 | O=C(Cc1ccc([N+](=O)[O-])cc1C(=O)O)Nc1cccc(/C=C/c2nc(C3CCC3)cs2)c1
208 | Cc1noc(NC(=O)C2c3ccccc3Oc3ccccc32)n1
71 to 74 | O=S(Cc1[nH]c2ccccc2c1Sc1ccccc1)c1ccccc1 (centres undefined)
205 to 206 | O=C(Nc1ccc(C(F)(F)F)cc1)c1ccc(-c2nn(Cc3ccccc3)c3ccccc23)o1
83 to 84 | Fc1ccc(-c2cc(CCC#Cc3ccccn3)on2)cc1
219 to 221 | CN1C(=O)C2(COc3cc4c(cc32)OCCO4)c2c(Oc3ccccn3)cccc21 (centres undefined)
156 | C(=NNc1ccccc1)c1cccnc1
> 300 | CC1(C)C=Nc2cc3[nH]c(-c4ccncc4)cc3cc21
115 to 117 | CCCc1nn(C)c2c(=O)[nH]c(-c3cc(CCCN)ccc3OCC)nc12
165 to 166 | CC(C)(C)OC(=O)C(C1NC(C(=O)OCc2ccccc2)C2(CCCCC2)S1)N1C(=O)c2ccccc2C1=O (centres undefined)
140 to 145 | CCCCN(CCCC)c1nc(Nc2ccc3c(c2)C(=O)c2ccccc2C3=O)nc(N(CCCC)CCCC)n1
130 to 134 | O=C(NCCCc1ccncc1)N(CC=Cc1ccccc1)CCC12CC3CC(CC(C3)C1)C2
121 to 123 | CCOc1c2ccccc2nc2c1c(C)nn2-c1ccccn1
125 to 126 | O=C1N(Cc2ncccc2F)c2ccccc2C12COc1cc3c(cc12)OCCO3 (centres undefined)
108 to 112 | Cc1cc(N)ccc1-c1ccccc1CO
90 to 91 | Clc1ccc2scc(-c3ccncc3)c2c1
75 to 78 | ON=C(CCC(CN1CCN(c2ncccn2)CC1)C(=NO)c1ccccc1)c1ccccc1 (centres undefined)
213 to 215 | CCn1c(=O)c(-c2c(Cl)cccc2Cl)cc2cnc(Nc3ccc(OC)cc3)nc21
232 to 234 | Cc1cc(Br)cnc1CCCCNc1ncc(Cc2ccc(O)cc2)c(=O)[nH]1
76 to 87 | Cn1nnnc1SCc1c(S(C)(=O)=O)ccc(C(=O)C2=C(Sc3ccccc3)CCCC2=O)c1Cl
163 | COC(=O)C1=C(C)NC(C)=C(C(=O)OCCN(C)Cc2ccccc2)C1c1cc([N+](=O)[O-])ccn1 (centres undefined)
89 to 90 | O=C(NCCCc1ccccc1)NCc1ccccn1

melting point [°C] | SMILES
124 to 125 | O=C(NCCCS(=O)(=O)c1ccncc1)c1cccs1
128 to 130 | CS(=O)(=O)c1ccc(-n2nc(C(F)(F)F)cc2-c2ccc(-c3cscn3)c(Cl)c2)cc1
53 | CCCCCCCCOc1ccc(C(=O)Oc2cc(Cl)c(Cl)cc2Cl)cc1
140 | NC(=O)c1cc(OCCNCc2ccccc2)ccc1O
188 | Cc1cccc(NC(=O)NCC(=O)N(CC(=O)O)c2ccccc2)c1
170 to 171 | Cc1ccc(-c2ccc3c(c2)C=C(C(=O)Nc2ccc(CN(C)C4CCOCC4)cc2)CC(C)O3)cc1 (centres undefined)
189 to 192 | O=c1c(NCCCN(Cc2cccs2)c2ccccn2)c(NCc2ccncc2)c1=O
49 to 50 | CCOC(=O)c1c(C)nn(-c2ccccn2)c1C
58 to 59 | CCCCCCCCCCCCCCCCOc1ccc(OCC(=O)N(Cc2ccccn2)C(C)=O)cc1
192 to 195 | CCOC(=O)[C@H](Cc1ccc(Nc2nccc3ccncc23)cc1)NC1=C(Br)C(=O)C12CCCCC2
198 to 199 | CCCCc1nc2c(N)nc3ccc(OCc4ccccc4)cc3c2n1C
205 to 206 | CS(=O)(=O)c1ccc(-c2cnn(CC(=O)c3ccc(C(F)(F)F)cc3)c(=O)c2-c2ccc(F)cc2)cc1
133 to 135 | CC1(C)C=Cc2cc(C(=O)NCCc3ccc(OCc4ccccc4)cc3)ccc2O1
119 to 120 | Cc1nc2ccc(NCCCN3CCC(OC(c4ccccc4)c4ccccc4)CC3)nn2n1
161 | Cc1cc(C)cc(NCc2ccc3nc(NCCCN4CCCCC4)n(Cc4nc(C)ccc4O)c3c2)c1
153 to 155 | CC(C)c1ccc2c(CCCCN(C)S(=O)(=O)c3ccccc3)cc(C(=O)O)c-2cc1
114 | O=C1CCCC2CN(C(Cc3ccccc3)=NCc3cccs3)CC12 (centres undefined)
163 to 165 | O=c1[nH]nc2c3c(cccc13)N=C(CN1CCCN(Cc3ccc(F)cc3)CC1)N2
179 to 180 | O=C1NC(Cc2c[nH]c3ccccc23)C(=O)N1CCCN1CCC(c2ccccc2)CC1 (centres undefined)
198 to 205 | COc1cc(N2CCC(N3CCN(C)CC3)CC2)ccc1Nc1ncc2ccc(-c3ccccc3S(=O)(=O)N(C)C)n2n1
101 to 103 | Cc1cc(SCc2ccc(OCc3ccc(Cl)cc3Cl)cc2)ccc1OCC(=O)O
115 to 116 | CN(C)c1ccc(C(=O)C(F)(F)c2ccccc2)cc1
235 to 238 | COCCN1C(=O)CCC(C)(C)c2ccc(Nc3ncc(Cl)c(Nc4c(F)cccc4OCC#N)n3)cc21
262 to 263 | COc1ccccc1C1(Cl)C(=O)Nc2ccc(C)c(Cl)c21 (centres undefined)
